The source of these data is patent US11945807B2, “Splicing modulator antibody-drug conjugates and methods of use” (EISAI R&D MANAGEMENT CO., LTD., priority 2018, dated 2024).

SMILES strings stand for the structures. Read-outs that look alike come from different tables or passages of the source.

The subject of data set [1] is MOLP8 cells. The data set can be described thus: Cell viability CellTiter-Glo, MOLP8 (CD138-expressing). It counts as cell-based. The note with it: for GI50: Homo sapiens, read-out: Payload GI50.
Procedure: (§1) HCC1954 (American Type Culture Collection (ATCC)) breast ductal carcinoma cells were plated at 2000 cells/well in flat bottom 96-well tissue culture plates (Corning) in a total volume of 90 μL tissue culture medium supplemented with 10% fetal bovine serum (ThermoFisher Scientific). Cells were treated with a 3-fold serial dilution of compound from 200 nM to 0.03 nM. Each concentration was tested in triplicate. At the time of treatment, a plate of untreated cells was evaluated using CellTiter-Glo®2.0 Luminescent Cell Viability Assay according to the manufacturers recommendations (Promega; #G9241). CellTiter-Glo® 2.0 reagent was added to the medium, incubated, and assayed on an EnVision Multilabel Reader (PerkinElmer). Values represent time zero (T0). […] Percentage growth inhibition was calculated as: [(T144−T0)/(C−T0)]×100 for concentrations for which T144>/=T0 or [(T144−T0)/T0]×100 for concentrations for which T144<T0. The dose response curve plots were generated using Prism 7 (Graphpad) and fit using nonlinear regression analysis and the log(inhibitor) versus response-variable slope (four parameters).
(§2) Anti-CD138 ADCs were tested in the CD138-expressing MOLP8 multiple myeloma cell line. Similarly, anti-EPHA2 ADCs were tested in the EPHA2-expressing PC3 prostate cancer cell line.
In data set [2] the test system is PC3 cells. Put plainly: Cell viability CellTiter-Glo, PC3 (EPHA2-expressing). It counts as cell-based. The note with it: for GI50: Homo sapiens, PC-3, free payload of the ADC. Background: In ATP-based viability assays light output follows the ATP content of the culture.
Procedure: as §1, §2
Data set [3] can be described thus: Chemical stability of ADC payload, pH 5.5 buffer. The note with it: for half-life at 20 μM: McIlvaine (citrate-phosphate) buffer, unconjugated payload, Citrate-Phosphate buffer pH 5.5, 37° C., read-out: Stability Mean Stability t1/2 pH5.5 (converted); for pH 5.5 Stability (t1/2, 37 C.): pH 5.5, 37 C., corresponding payload. It counts as physicochemical. An excerpt: (Eppendorf ThermoMixer). […] Time 0 was set to 100.

The subject of data set [4] is N87 cells. The data set can be described thus: Cell viability CellTiter-Glo, N87. The data set is classed as cell-based, human. The note with it: unconjugated payload of the ADC; for GI50: Homo sapiens.
Procedure: as §1
(§3) HCC1954 (ATCC), 2000 cells/well), N87 (ATCC, 4000 cells/well), SKBR3 (ATCC, 3000 cells/well), and MCF7 (ATCC, 1500 cells/well) cell lines were used.
Data set [5] concerns THP1.1. The data set can be described thus: Payload cell potency and lethality CTGlo 72 h, THP1.1. It counts as cell-based. The following applies: unconjugated payload; for GI50: payload cell potency and lethality.
Data set [6] in a line: Caco-2 permeability of ADC payload. It counts as in vitro ADME. The note with it: human; for Papp B→A at 2 h, 10 NM: basolateral to apical, read-out: Permeability Mean Caco-2 B-A Perm (10e−G cm/s). On the technique in general: Caco-2 cells form a polarised layer with tight junctions and transporters.
Procedure: (§4) Integrity of cell monolayer was confirmed by TEER (transepithelial electrical resistance) and Lucifer yellow. Payloads were spiked in duplicate at 10 NM, separately, on both sides of the cell monolayer. Permeability rates from the apical to basolateral (A-B) direction and the basolateral to apical (B-A) direction were determined by sampling aliquots from both chambers immediately after treatment (t=0) and following incubation for 2 hours. Samples were protein precipitated with organic solvent containing internal standard and analyzed by LC-MS/MS (SCIEX; API 5500). The area ratio responses of payload/internal standard over time in both directions were used to generate permeability (cm/sec) values.
The test system of data set [7] is MCF7 cells. The data set can be described thus: Cell viability CellTiter-Glo, MCF7 (HER2-negative). The data set is classed as cell-based. The following applies: Homo sapiens, unconjugated payload of the ADC.
Procedure: as §1, §3
Data set [8] concerns HCC1954 cells. The data set can be described thus: Cell viability CellTiter-Glo, HCC1954. The following applies: for GI50: Homo sapiens, HCC1954, read-out: Payload GI50 (nM).
Data set [9] has as its system Caco-2 cells. The data set can be described thus: Caco-2 permeability of ADC payload. The data set is classed as in vitro ADME.
Procedure: as §4
Setting [10] is: unconjugated payload of the ADC.
Setting [11] is: Caco-2, unconjugated payload, apical to basolateral, 2 hours, read-out: Permeability Mean Caco-2 A-B Perm (10e−6 cm/s).
The mark [12] stands for this setting: Caco-2, unconjugated payload, 2 hours.
The mark [13] stands for this setting: MOLP-8, unconjugated payload of the ADC in the row.
The mark [14] stands for this setting: unconjugated payload of the ADC, HCC1954 cells.
Where [15] appears, read: Caco-2, A-B, corresponding payload (Table 26), read-out: Permeability Caco-2 A-B (10e−6 cm/s).

For `CC(=O)N1CCC(n2nnc3c(F)cc(/C=C(\C)[C@H]4OC(=O)C[C@H](O)CC[C@H](C)[C@@H](OC(=O)N5CCNCC5)/C=C/[C@@H]4C)cc32)CC1` [D14], the concentration for 50% growth inhibition (GI50) in data set [1] (MOLP-8, unconjugated payload of the ADC) worked out at 1.9 nM; in data set [2] it was 3.88 nM; in [4], 2.92 nM; in data set [5] it was 3.584 nM; in [7], 5.29 nM. Further, the “Payload LD50” value in [1] (setting [10]) is listed as 8.5 nM. The figures for the “Payload Rmin (%)” value in data set [1] (setting [10]), in [2] (free payload of the ADC) and in [4] were −61%, −79.835% and −52.662%, respectively. Moreover, the half-life at 20 μM in data set [3] was over 168 h. In data set [5], the “CTGlo-AT S Mean Min-Response % 72 h THP1.1” value was −99.209%. Moreover, the Papp A→B at 2 h, 10 NM in [6] (setting [11]) was found to be 0.06 ×10⁻⁶ cm/s. Moreover, in data set [6] (setting [12]), the Papp B→A at 2 h, 10 NM was determined as 12.1 ×10⁻⁶ cm/s.
As to `CC(=O)N1CCC(n2nnc3c(F)cc(/C=C(\C)[C@H]4OC(=O)C[C@H](O)CC[C@H](C)[C@@H](OC(=O)N5CCN(C)CC5)/C=C/[C@@H]4C)cc32)CC1` [D15], the GI50 in [1] (setting [13]) was 0.776 nM; in data set [2], 3.88 nM; in data set [8], 0.358 nM; in data set [4] it was 0.41 nM; in data set [7], 0.961 nM. For the same compound, the entries for the “Payload Rmin (%)” value in data set [2] (free payload of the ADC), in data set [8] (setting [14]) and in data set [4] were −79.835%, −84.412% and −68.045%, respectively. Moreover, the half-life at 20 μM in [3] was over 168 h. Besides, the “pH 5.5 Stability (t1/2, 37 C.)” value in data set [3] was found to be 7. Further, the “Payload LD50” value in data set [8] (setting [14]) is recorded as 2.037 nM; in [4], over 200 nM. In data set [5], the “CTGlo-AT S Mean Min-Response % 72 h THP1.1” value is reported as −99.595%. Moreover, the Papp A→B at 2 h, 10 NM in data set [6] (setting [15]) stood at 3.4 ×10⁻⁶ cm/s; in data set [6] (setting [11]), 3.43 ×10⁻⁶ cm/s. Also, the Papp B→A at 2 h, 10 NM in data set [6] (setting [12]) was 26.9 ×10⁻⁶ cm/s.
Turning to `CC[C@H](O)[C@@H](C)[C@H]1O[C@@H]1C[C@H](C)/C=C/C=C(\C)[C@H]1OC(=O)C[C@H](O)CC[C@@](C)(OC)[C@@H](OC(=O)N2CCNCC2)/C=C/[C@@H]1C` [D18, (2S,3S,6S,7R,10R,E)-10-hydroxy-2-((S,2E,4E)-7-((2R,3R)-3-((2R,3S)-3-hydroxypentan-2-yl)oxiran-2-yl)-6-methylhepta-2,4-dien-2-yl)-7-methoxy-3,7-dimethyl-12-oxooxacyclododec-4-en-6-yl piperazine-1-carboxylate], the 50% growth inhibitory concentration (GI50) is 0.208 nM in data set [8], 0.275 nM in data set [4], 0.863 nM in data set [5] and 0.883 nM in data set [7]. Moreover, in data set [4], the “Payload Rmin (%)” value is reported as −92.127%. For the same compound, in [5], the “CTGlo-AT S Mean Min-Response % 72 h THP1.1” value is −99.621%. Further, the Papp A→B at 2 h, 10 NM in [6] (setting [11]) came to 1.19 ×10⁻⁶ cm/s. In addition, the Papp B→A at 2 h, 10 NM in data set [6] (setting [12]) amounted to 27.4 ×10⁻⁶ cm/s.
On to `CC[C@H](O)[C@@H](C)[C@H]1O[C@@H]1C[C@@](C)(O)/C=C/C=C(\C)[C@H]1OC(=O)C[C@H](O)CC[C@@](C)(OC)[C@@H](OC(=O)N2CCN(CCCC(=O)O)CC2)/C=C/[C@@H]1C` [D25], for which the GI50 was 150 nM in data set [1] (setting [13]); over 400 nM in data set [2]; 168 nM in data set [8]; over 200 nM in [4]; 348.114 nM in data set [5]; over 200 nM in data set [7]. In addition, the “Payload LD50” value in data set [1] (setting [10]) and in data set [2] (free payload of the ADC) was over 400 nM each time. In addition, the figures for the “Payload Rmin (%)” value in data set [2] (free payload of the ADC) and in [4] were 77.524% and 40.364%, respectively. Moreover, the half-life at 20 μM in [3] was 120 h. Further, in [3], the “pH 5.5 Stability (t1/2, 37 C.)” value came to 3.4. For the same compound, the “CTGlo-AT S Mean Min-Response % 72 h THP1.1” value in data set [5] is given as −77.246%. Also, the “payload permeability (in words)” value in [9] is “poorly permeable”. In addition, the Papp A→B at 2 h, 10 NM in [6] (setting [15]) was 0.14 ×10⁻⁶ cm/s; in [6] (setting [11]), 0.137 ×10⁻⁶ cm/s. Moreover, in [6] (setting [12]), the Papp B→A at 2 h, 10 NM came out at 0.349 ×10⁻⁶ cm/s.

For orientation: GI50 means the concentration that inhibits growth by half.
